Reference: ChEMBL document CHEMBL4837247, “Discovery of a Potent Dual SLK/STK10 Inhibitor Based on a Maleimide Scaffold” (J Med Chem, 2021)

Target: Serine/threonine-protein kinase 10 (Homo sapiens, UniProt O94804)
Assay: Inhibition of STK10 (unknown origin) expressed in Sf9 cells assessed as transfer of radiolabelled phosphate group from ATP by reaction biology method

Sequence of Serine/threonine-protein kinase 10 (O94804 whole entry): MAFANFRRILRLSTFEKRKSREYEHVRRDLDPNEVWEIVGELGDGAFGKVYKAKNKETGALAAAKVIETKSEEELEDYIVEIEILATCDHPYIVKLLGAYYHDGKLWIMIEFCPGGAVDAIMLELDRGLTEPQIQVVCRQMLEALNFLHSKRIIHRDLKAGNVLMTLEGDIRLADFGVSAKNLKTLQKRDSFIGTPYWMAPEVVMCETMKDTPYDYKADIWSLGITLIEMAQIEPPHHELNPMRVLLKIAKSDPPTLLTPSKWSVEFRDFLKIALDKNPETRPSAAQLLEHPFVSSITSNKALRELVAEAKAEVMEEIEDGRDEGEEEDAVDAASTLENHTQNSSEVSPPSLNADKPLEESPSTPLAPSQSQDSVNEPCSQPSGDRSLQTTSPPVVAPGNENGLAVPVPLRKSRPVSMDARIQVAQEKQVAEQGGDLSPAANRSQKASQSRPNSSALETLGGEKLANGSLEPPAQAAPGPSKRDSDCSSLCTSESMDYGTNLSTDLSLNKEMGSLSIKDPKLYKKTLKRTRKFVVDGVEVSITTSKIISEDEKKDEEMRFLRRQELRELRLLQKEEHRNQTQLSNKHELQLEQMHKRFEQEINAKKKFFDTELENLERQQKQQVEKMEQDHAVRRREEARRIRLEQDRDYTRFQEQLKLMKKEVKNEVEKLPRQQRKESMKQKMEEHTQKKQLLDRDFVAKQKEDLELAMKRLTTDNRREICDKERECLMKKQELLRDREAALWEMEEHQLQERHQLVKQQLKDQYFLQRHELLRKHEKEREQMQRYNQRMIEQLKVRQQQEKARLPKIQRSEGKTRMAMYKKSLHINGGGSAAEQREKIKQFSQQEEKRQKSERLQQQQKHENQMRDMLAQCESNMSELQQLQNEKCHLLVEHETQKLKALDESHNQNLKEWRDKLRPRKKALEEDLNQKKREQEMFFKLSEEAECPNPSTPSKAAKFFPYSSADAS

Work on Cn1cc(C2=C(c3cn(CCCSC(=N)N)c4ccccc34)C(=O)NC2=O)c2ccccc21 [BISINDOLYLMALEIMIDE IX] yielded an IC50 of 99 nM.
